Consider 2 compounds from PMC4104029, “Mechanism of Action of Compound-13: An α1-Selective Small Molecule Activator of AMPK” (Chemistry & Biology, 2014).

Broadly, the pIC50 is −log10 of the IC50, conventionally taken in molar units.

The target of the assay is T1, fructose-1,6-bisphosphatase-1 (FBP1) (Mus musculus, UniProt Q9QXD6).
T1 construct: made in house; host or cells: E. coli
Put plainly: FBP1 enzyme assay. The format is biochemical. How it is done: Figure 1 The AMP Analog C2 Is a Potent AMPK Activator in Cell-Free Assays with Selectivity for α1 Complexes (A) The structure of the endogenous activator of AMPK, AMP; the AMP mimetic, C2; and the classical AMP mimetic, ZMP, and other AMPK activators are shown. […] (B) Recombinant AMPK complexes (α1β1γ1, α2β1γ1, α1β1γ2, and α1β2γ1) expressed in Spodoptera frugiperda were assayed for allosteric activation by AMP or C2. Results are expressed as the increase in activity relative to controls without ligand and represent the mean ± SD for three independent experiments. (C) Enzymes allosterically regulated by AMP (PFK1 and FBP1) or using AMP as a substrate (AMPD1, AK, and 5′-NT) were assayed in the presence of C2 (≤ 100 μM). Enzymes allosterically regulated by AMP were screened for both agonism and antagonism, the latter in the presence of AMP at ≈ EC50. All enzymes were unaffected by [C2] ≤ 100 μM. Representative data are shown for the effects of AMP and C2 on PFK1 and FBP1 activity. Results are representative of three independent experiments conducted on one enzyme preparation. […]

pIC50: −log10 of the molar value.

T1 sequence (Q9QXD6 whole entry): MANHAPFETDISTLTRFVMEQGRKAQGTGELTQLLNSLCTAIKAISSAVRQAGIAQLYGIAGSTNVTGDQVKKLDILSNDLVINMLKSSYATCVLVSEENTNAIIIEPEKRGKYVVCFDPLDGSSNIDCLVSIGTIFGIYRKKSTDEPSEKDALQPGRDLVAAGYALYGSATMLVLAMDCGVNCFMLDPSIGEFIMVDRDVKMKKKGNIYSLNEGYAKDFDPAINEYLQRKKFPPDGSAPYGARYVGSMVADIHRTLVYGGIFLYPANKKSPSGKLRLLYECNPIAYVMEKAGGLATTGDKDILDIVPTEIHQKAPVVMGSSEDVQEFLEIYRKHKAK

Turning to `Nc1ncnc2c1ncn2[C@@H]1O[C@H](COP(=O)(O)O)[C@@H](O)[C@H]1O` [AMP, reference compound], the negative-log IC50 (pIC50) (read-out: IC50, inhibition of FBP1) was 5.30.

With `O=P(O)(O)c1ccc(-c2cc(O)on2)o1` [Compound C2, 5-(5-hydroxyl-isoxazol-3-yl)-furan-2-phosphonic acid], the “effect on FBP1” value (concentrations up to 100 μM) is “no effect”.
